What all share (format): cell-based
The test system of test [1] is S. meliloti strain SMP4B (ΔldtRSMc-pBBR1MCS-5::LdtR(L61A)).
For test [2], the system named is S. meliloti strain SMP4C (ΔldtRSMc-pBBR1MCS-5::LdtR(F64A)).
Test [3] relates to LdtR mutant R37A, lacZ reporter in B. subtilis.
The subject of test [4] is S. meliloti strain SMP4A (ΔldtRSMc-pBBR1MCS-5::LdtR(T43A)).
Test [5] relates to LdtR mutant Y81A, lacZ reporter in B. subtilis.

Take `CCc1oc2ccccc2c1C(=O)c1cc(Br)c(O)c(Br)c1` [benzbromarone]: the “Growth rate constant, k” value in test [1] turned out to be 0.056 ± 0.005 generations/h; in test [2], 0.058 ± 0.003 generations/h; in test [4], 0.056 ± 0.004 generations/h. Besides, the Mean generation time is reported as 17.9 h in test [1], 17.2 h in test [2] and 17.9 h in test [4]. Besides, the “decrease in β-galactosidase activity” value in test [3] and in test [5] was “around 40%” in each case.

Values taken from publication PMC4658428 (Frontiers in Microbiology, 2015).
